Data taken from US8293743B2, “Substituted imidazo[1,2-A]pyrazine derivatives as alpha-helix mimetics and method relating to the treatment of cancer stem cells” (Choongwae Pharma Corporation, priority 2005, dated 2012).
“Also recorded” adds a separate entry of the source.

How the values were obtained:
MDR-1 promoter = test: ChIP assay of coactivator occupancy of the MDR-1 promoter in MES-SA/Dx5 cells; type: cell-based, human
Excerpt: Similar ICG-001 induced p300 recruitment at the survivin promoter has been previously observed, which was associated with recruitment of proteins associated with transcriptional repression (i.e., HDAC6 and PML) (H Ma et al. Oncogene 2005). A proposed non-binding mechanism is repressive transcriptional apparatus recruitment to the MDR-1 promoter by p300.

[1] = test system: K562 imatinib resistant cells; test: Cell proliferation/viability of K562 imatinib resistant cells, Imatinib mesylate +/- ICG-001; type: cell-based; conditions: in combination with Imatinib mesylate
Procedure: (§1) MDR transporters are believed to play important roles in protecting cancer stem cells from chemotherapy (Dean et al, Nat. Rev. Cancer 5, 275, 2005). To further study this phenomenon, a series of experiments was performed.

B16 = test: Colony inhibition assay, B16 melanoma; type: cell-based, mouse; conditions: B16, 80 cells/well
Procedure: (§2) Colony inhibition assays were performed, in which plated cells from A2780, CP70, IGROV-1 and B16 cells were exposed to doses of ICG-001 within the range of 0.625 to 10 μM. An exemplary experiment is illustrated in Table 3.
(§3) Table 4 presents data on the plating efficiencies of cultured cells from A2780, CP70, IGROV-1 and B16 in control wells as well as in wells exposed to ICG-001.

caspase3/7 = test: Caspase3/7 activation in MES-SA/Dx5 cells; type: cell-based, human; conditions: added to cells treated with 1 mg/ml or 5 mg/ml of Doxorubicin
Procedure: as §1

MDR-1 [2] = test: MDR-1/luciferase activity in isogenic HCT116 cell lines; type: cell-based
Excerpt: To further confirm the importance of the role of nuclear β-catenin in driving MDR-1 expression, isogenic HCT-116 cell lines were utilized (Waldmann 2002).
MDR-1 transcriptional regulation in the isogenic HCT116 cell lines was also investigated. […] Transfection of p300 decreased MDR-1/luciferase activity below control levels in all 3 cell lines (FIG. 17A).

MDR-1 [3] = test: MDR-1 protein expression in MES-SA/Dx5 cells (immunofluorescence, immunoblotting); type: cell-based, human; conditions: immunofluorescence and immunoblotting, dose dependent
Excerpt: (§4) To investigate differential coactivator usage for the transcriptional regulation of the MDR-1 gene in MES-SA cells, the chemogenomic tool ICG-001 was used (Emami et al. 2004).

IGROV-1/CP = test: Colony inhibition assay, IGROV-1/CP; type: cell-based; conditions: 80 cells/well
IGROV-1 = test: Colony inhibition assay, IGROV-1; type: cell-based; conditions: IGROV-1, 80 cells/well
Procedure: as §2, §3
(§5) The cells were tested at range of concentrations of ICG-001 between 0.625 and 10 μM and at cisplatin concentrations between 1.25 to 20 μM. All three ovarian cancer lines tested (A2780, CP70 and IGROV-1) were more sensitive to ICG-001 than to cisplatin. […] The cisplatin-sensitive lines, IGROV-1 and A2780, had similar sensitivity to ICG-001 as to cisplatin (FIGS. 23A and B).

CD34+ CML blasts = test: Colony formation (CFU) of CD34+ blasts from bone marrow of CML patients; type: cell-based; conditions: for total colony forming units (CFU): combination ICG-001 and imatinib vs control or either drug alone
MDR-1 [4] = test: MDR-1/luciferase reporter activity in MES-SA/Dx5 cells; type: cell-based, human; conditions: read-out: IC50, reduction of MDR-1 luciferase activity
Excerpt: as §4

CBP-β-catenin = target: T1, CBP-β-catenin (Homo sapiens, UniProt Q92793); test: TOPFlash reporter system in SW480 cells (CBP-β-catenin binding); type: cell-based; conditions: increasing concentrations
T1 construct: tested using the TOPFlash reporter system in SW480 cells; endogenous in cells; host or cells: SW480 cells
Procedure: The effect of several compounds on CBP-β-catenin binding was tested using the TOPFlash reporter system in SW480 cells.

K562 cells = test: Differentiation and caspase activation in K562 cells; type: cell-based
CP70 = test: Colony inhibition assay, CP70; type: cell-based; conditions: for Average plating efficiency: CP70, 80 cells/well
Procedure: as §2, §3, §5

normal CD34+ cells = test: Effect on normal CD34+ hematopoietic cells (cellularity, colony formation); type: cell-based
Excerpt: This is the result of the emergence of leukemic drug resistant clones associated with increased nuclear β-catenin levels, a hallmark of increased TCF/β-catenin transcription (Weissman NEJM 2003). […] In sharp contrast, the control colonies were large and compact.

MES-SA/Dx5 cells = test: Cell proliferation/viability of MES-SA/Dx5 cells, Doxorubicin +/- ICG-001; type: cell-based, human; conditions: in combination with Doxorubicin
Procedure: as §1

A2780 = test: Colony inhibition assay, A2780; type: cell-based; conditions: for Average plating efficiency: A2780, 80 cells/well
Procedure: as §2, §3, §5

T1 sequence (Q92793 whole entry): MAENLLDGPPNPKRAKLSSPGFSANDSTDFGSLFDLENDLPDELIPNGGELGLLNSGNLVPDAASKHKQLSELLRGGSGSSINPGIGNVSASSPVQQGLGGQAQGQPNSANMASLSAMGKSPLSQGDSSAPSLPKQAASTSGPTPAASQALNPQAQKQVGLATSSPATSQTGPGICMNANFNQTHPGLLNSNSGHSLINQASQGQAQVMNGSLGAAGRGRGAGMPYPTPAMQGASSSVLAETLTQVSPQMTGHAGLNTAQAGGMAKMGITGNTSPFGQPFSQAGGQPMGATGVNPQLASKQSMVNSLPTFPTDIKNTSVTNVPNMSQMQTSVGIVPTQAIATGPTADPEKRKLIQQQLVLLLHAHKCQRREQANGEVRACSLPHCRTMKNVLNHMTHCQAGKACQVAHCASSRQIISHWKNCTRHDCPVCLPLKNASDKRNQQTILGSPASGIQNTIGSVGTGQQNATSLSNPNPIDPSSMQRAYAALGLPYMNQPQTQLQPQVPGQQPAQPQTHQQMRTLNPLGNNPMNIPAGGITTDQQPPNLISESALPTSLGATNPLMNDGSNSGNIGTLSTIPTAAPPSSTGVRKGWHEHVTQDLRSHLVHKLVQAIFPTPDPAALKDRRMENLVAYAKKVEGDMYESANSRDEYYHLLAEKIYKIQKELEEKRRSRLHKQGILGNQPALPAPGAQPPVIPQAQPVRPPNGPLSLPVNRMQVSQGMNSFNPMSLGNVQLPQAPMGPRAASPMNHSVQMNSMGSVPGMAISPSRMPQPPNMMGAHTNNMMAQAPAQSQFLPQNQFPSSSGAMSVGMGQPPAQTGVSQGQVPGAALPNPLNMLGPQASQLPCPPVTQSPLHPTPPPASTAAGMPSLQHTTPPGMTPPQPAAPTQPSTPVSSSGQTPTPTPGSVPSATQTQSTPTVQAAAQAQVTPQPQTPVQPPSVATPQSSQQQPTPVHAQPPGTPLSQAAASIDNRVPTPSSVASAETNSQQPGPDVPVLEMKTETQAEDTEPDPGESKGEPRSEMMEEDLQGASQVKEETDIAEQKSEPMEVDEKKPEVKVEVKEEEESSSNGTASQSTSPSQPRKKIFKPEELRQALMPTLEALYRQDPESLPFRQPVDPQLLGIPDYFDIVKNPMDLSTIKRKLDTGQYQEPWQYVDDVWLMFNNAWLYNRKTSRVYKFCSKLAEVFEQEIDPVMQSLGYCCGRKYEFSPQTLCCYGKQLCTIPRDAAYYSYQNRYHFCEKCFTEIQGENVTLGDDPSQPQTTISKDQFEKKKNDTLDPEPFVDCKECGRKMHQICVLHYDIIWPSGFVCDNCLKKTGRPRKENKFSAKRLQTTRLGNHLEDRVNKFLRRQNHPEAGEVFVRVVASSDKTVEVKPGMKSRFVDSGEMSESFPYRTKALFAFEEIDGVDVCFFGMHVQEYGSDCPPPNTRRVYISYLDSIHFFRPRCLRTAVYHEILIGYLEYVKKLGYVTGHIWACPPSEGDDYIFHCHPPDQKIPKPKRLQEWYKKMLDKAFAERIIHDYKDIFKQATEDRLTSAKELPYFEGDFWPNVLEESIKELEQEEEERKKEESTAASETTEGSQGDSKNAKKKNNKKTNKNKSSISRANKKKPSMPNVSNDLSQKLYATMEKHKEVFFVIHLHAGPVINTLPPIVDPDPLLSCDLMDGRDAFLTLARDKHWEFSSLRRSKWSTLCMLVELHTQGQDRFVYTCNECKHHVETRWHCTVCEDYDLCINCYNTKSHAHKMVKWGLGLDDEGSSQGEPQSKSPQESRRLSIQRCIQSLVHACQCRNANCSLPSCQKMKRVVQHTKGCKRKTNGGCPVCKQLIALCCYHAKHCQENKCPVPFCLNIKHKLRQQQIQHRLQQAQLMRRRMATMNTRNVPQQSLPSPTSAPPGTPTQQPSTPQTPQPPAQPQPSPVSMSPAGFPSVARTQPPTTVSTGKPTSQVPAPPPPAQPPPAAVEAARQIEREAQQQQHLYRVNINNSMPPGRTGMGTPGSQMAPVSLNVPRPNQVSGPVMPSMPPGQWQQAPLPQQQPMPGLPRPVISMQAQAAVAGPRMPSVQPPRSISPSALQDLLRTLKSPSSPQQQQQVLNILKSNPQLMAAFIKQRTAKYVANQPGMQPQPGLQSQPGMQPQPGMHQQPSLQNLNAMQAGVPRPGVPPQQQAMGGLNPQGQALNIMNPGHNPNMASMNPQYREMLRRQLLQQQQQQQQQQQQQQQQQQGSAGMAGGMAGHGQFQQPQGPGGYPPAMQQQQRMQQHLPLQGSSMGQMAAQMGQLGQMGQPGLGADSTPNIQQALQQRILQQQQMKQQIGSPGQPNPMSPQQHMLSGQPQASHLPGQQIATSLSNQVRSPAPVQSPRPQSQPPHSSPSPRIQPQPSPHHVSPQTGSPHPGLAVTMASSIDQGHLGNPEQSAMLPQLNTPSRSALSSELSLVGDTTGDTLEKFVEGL

Question: Which results are given for O=C1[C@H](Cc2ccc(O)cc2)N2C(=O)CCN(C(=O)NCc3ccccc3)[C@H]2CN1Cc1cccc2ccccc12 [ICG-001]?
Answer: occupancy of the MDR-1 promoter by CBP (MDR-1 promoter): blocked in a dose dependent fashion; occupancy of the MDR-1 promoter by p300 (MDR-1 promoter; 25 uM ICG-001): occupancy increased; decrease of cell proliferation/viability, combination vs either agent alone [1]: significantly more effective; Average plating efficiency (B16; 0.625 μM): 24%; Average plating efficiency (B16; 1.25 μM): 18%; Average plating efficiency (B16; 2.5 μM): 3%; Average plating efficiency (B16; 5 μM): 0%; Average plating efficiency (B16; 10 μM): 0%; caspase3/7 activation (caspase3/7): increased caspase3/7 activation significantly; MDR-1/luciferase activity (MDR-1 [2]; HCT-116 wild type): dose dependently decreased; MDR-1/luciferase activity (MDR-1 [2]; Hβ18(ko/*) cell line): dose dependently decreased; MDR-1/luciferase activity (MDR-1 [2]; Hβ92(wt/ko) cells): essentially no further reduction below basal levels; level of MDR-1 protein expression (MDR-1 [3]): significantly reduced; Average plating efficiency (IGROV-1/CP; 0.625 μM): 59%; Average plating efficiency (IGROV-1/CP; 1.25 μM): 25%; Average plating efficiency (IGROV-1/CP; 2.5 μM): 13%; Average plating efficiency (IGROV-1/CP; 5 μM): 6%; Average plating efficiency (IGROV-1/CP; 10 μM): 0%; Average plating efficiency (IGROV-1; 0.625 μM): 31%; Average plating efficiency (IGROV-1; 1.25 μM): 24%; Average plating efficiency (IGROV-1; 2.5 μM): 8%; Average plating efficiency (IGROV-1; 5 μM): 1%; Average plating efficiency (IGROV-1; 10 μM): 0%; total colony forming units (CFU) (CD34+ CML blasts): most significant reduction; total colony forming units (CFU) (CD34+ CML blasts; listed as IGC-001): significant additive effect; IC50 (MDR-1 [4]): ~16 µM; effect on CBP-β-catenin binding (TOPFlash reporter) (CBP-β-catenin; listed as ICG-100): inhibited; caspase activation (K562 cells): not capase activation; differentiation (K562 cells): induced differentiation; Average plating efficiency (CP70; 0.625 μM): 35%; Average plating efficiency (CP70; 1.25 μM): 35%; Average plating efficiency (CP70; 2.5 μM): 13%; Average plating efficiency (CP70; 5 μM): 1%; Average plating efficiency (CP70; 10 μM): 0%; inhibition (CP70; cisplatin-resistant line CP70, 5 μM): > 90%; colony formation of normal CD34+ hematopoietic cells (normal CD34+ cells): did not affect colony formation; total cellularity, CFU-Es and BFU-Es (normal CD34+ cells): minimal effects; adverse effects on normal CD34+ cells (normal CD34+ cells; up to 20 μM): did not have significant adverse effects; decrease of cell proliferation/viability, combination vs either agent alone (MES-SA/Dx5 cells): significantly more effective; COLONIES (n = 4) M +/− SD (A2780; 0.625 μM ICG-001): 74 +/− 4.7; COLONIES (n = 4) M +/− SD (A2780; 1.25 μM ICG-001): 28 +/− 13.2; COLONIES (n = 4) M +/− SD (A2780; 2.5 μM ICG-001): 0.25 +/− 0.5; COLONIES (n = 4) M +/− SD (A2780; 5 μM ICG-001): 0; COLONIES (n = 4) M +/− SD (A2780; 10 μM ICG-001): 0; Average plating efficiency (A2780; 0.625 μM): 25%; Average plating efficiency (A2780; 1.25 μM): 35%; Average plating efficiency (A2780; 2.5 μM): 6%; Average plating efficiency (A2780; 5 μM): 0%; Average plating efficiency (A2780; 10 μM): 0%

Question: Which colony formation (CD34+ CML blasts; 500 nM, FIG. 21C legend) does the source give for O=C1[C@H](Cc2ccc(O)cc2)N2C(=O)CCN(C(=O)NCc3ccccc3)[C@H]2CN1Cc1cccc2ccccc12 [PRI-004] here?
Answer: The colony formation was “completely blocks colony formation”.

Question: What about the “effect on CBP-β-catenin binding (TOPFlash reporter)” value (CBP-β-catenin) of the same compound?
Answer: The value was “effective; also recorded: inhibited”.
